Source: patent US20230158151A1 (NURIX THERAPEUTICS, INC., priority 2021, published 2023)

Molecular target: T1, ITK (Mus musculus, UniProt Q03526)
T1 construct: administered to mice orally; from tissue; host or cells: mouse splenocytes (spleen) after oral dosing
T1 sequence (Q03526 1-625): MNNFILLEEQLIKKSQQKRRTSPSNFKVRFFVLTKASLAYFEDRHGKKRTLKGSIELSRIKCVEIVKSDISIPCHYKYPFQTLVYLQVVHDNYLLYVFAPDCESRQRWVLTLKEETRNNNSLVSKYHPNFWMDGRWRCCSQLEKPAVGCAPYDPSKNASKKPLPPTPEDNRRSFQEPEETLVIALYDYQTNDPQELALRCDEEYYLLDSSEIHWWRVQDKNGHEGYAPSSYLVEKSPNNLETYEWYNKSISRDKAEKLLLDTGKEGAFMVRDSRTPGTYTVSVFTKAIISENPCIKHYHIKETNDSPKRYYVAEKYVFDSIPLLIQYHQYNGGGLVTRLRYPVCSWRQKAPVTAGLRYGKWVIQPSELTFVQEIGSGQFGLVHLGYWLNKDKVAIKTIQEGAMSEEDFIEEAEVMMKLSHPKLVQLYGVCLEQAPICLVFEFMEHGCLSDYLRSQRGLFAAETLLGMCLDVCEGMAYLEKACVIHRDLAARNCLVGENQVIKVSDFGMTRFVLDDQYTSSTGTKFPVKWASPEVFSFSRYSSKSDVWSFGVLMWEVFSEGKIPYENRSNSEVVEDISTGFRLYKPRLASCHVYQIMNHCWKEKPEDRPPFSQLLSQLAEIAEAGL
Test: Western Assay for ITK Degradation in Mouse Splenocytes after oral administration
Type: in vivo
Conditions: % ITK remaining in mouse splenocytes, 60 mpk PO, 24 h
Protocol: Compounds 30 and 31 were administered to mice orally. After 6 hours, splenocytes cells were harvested. ITK was evaluated by Western blotting. Media was removed and cell pellets were lysed in 100 μL lysis buffer (RIPA buffer (Fisher, PI89901), cOmplete Mini EDTA-free protease inhibitor (Sigma 11836170001), Protease Inhibitor Cocktail (Sigma, P2714), Phosphatase Inhibitor Cocktail 2 and 3 (Sigma, P5726 and P0044), Benzonase (Sigma, E1014)). Cells were lysed overnight at −20° C. Following thaw, cells were centrifuged for 10 min at 13000 rpm, then transferred to new tube. Protein levels were determined by BCA Assay performed according to manufacturer's protocol (EMD Millipore, cat. no. 71285-3). Samples were combined with (4×) LDS Sample Buffer and (10×) Reducing Agent and H2O to equally load 20 μg protein per lane of a 26-well NuPAGE 4-12% Bis-Tris protein gel (1.0 mm, Thermo cat. no. NP0326). Samples were separated by running gels at constant 150 V in NuPAGE MES SDS Running Buffer. Following electrophoresis, proteins were transferred to nitrocellulose membranes using an iBlot Gel Transfer Device and iBlot Gel Transfer Stacks (Thermo cat. no. IB21001 and IB301001) and transfer method P3 (20V for 7 min). Membranes were blocked for 1 hr in 5% milk solution (TBS (0.2% Tween-20)). Following blocking, membranes were incubated with primary antibody (1:1000 CST ITK (2F12) #2380) overnight at 4° C. with gentle shaking. Blots were washed 2× in TBS (0.2% Tween-20), 30 min per wash. Following washes, blots were incubated in secondary HRP-conjugated antibody (Promega anti-Mouse IgG (H+L) HRP cat. no. W4021), 1:5000 in 5% milk solution (TBS (0.2% Tween-20)), for 1 hr at room temperature with gentle shaking. Blots were washed 2× in TBS (0.2% Tween-20), 30 min per wash. Blots were incubated with 1:1 mix of ECL reagents 1 & 2 (Amersham ECL Western Blotting Detection Reagent, cat. no. RPN2106) for 2 min at room temperature. Bands were visualized using a Protein Simple imager. Blots were then re-probed with a combination of anti-actin antibody (Sigma Monoclonal Mouse Anti-β-Actin (clone AC-15), cat. no. A5441) and secondary HRP-conjugated antibody (Promega anti-Mouse IgG (H+L) HRP, cat. no. W4021) and similar steps were taken for incubation, wash, detection and visualization steps as above. The data was analyzed using Alpha View software. The densitometric reading for each sample band was normalized to that of the corresponding actin band per lane. Approximate % ITK remaining per sample was calculated as follows: […]
Once % ITK remaining has been calculated for each sample, groups are averaged together to show an means % ITK normalized to actin and relative to control.
Compounds 30 and 29 were administered to mice orally. After 6 hours or 24 hours, splenocytes cells were harvested. ITK was evaluated by Western blotting. Plasma concentrations were determined by LC/MS/MS. Plasma samples were protein precipitated by addition of 100 μl of acetonitrile containing 50 ng/ml of internal standard. The resulting mixture was vortexed and centrifuged at 4000 RPM for 5 minutes. An aliquot of the resultant supernatant (75 μl) was added to 75 μl of 0.1% formic acid in water to constitute the final sample for injection. Samples were injected on a Shimadzu Exion LC Binary Gradient AD Pump HLPC system connected to a Sciex QTRAP 6500+ mass spectrometer. Five μl of sample was injected onto a Waters Acquity UPLC BEH C18 column 130A (2.1×30 mm, […]) at 40° C. utilizing a flow rate of 700 μl/minute. Mobile Phase A was 0.1% formic acid in water and mobile phase B was 0.1% formic acid in acetonitrile. A linear gradient of 15-95% B over 1.0 minute was used. The mass spectrometer was operated in positive ion electrospray mode with multiple reaction monitoring for maximum sensitivity. Sciex Analyst software (version 1.6.3) was used for LC/MS/MS instrument control and acquisition. […]

Row | Compound | ITK (%) 60 mpk PO, 24 h
1 | CC1(C)CCc2c(-c3cc4ccc(C(=O)N5CCC(CN6CCN(c7ccc(C8CCC(=O)NC8=O)cc7)CC6)CC5)cc4[nH]3)n[nH]c2C1 (centres unmarked) [Compound 37, 3-(4-(4-((1-(2-(6,6-dimethyl-4,5,6,7-tetrahydro-1H-indazol-3-yl)-1H-indole-6-carbonyl)piperidin-4-yl)methyl)piperazin-1-yl)phenyl)piperidine-2,6-dione] | >100%
2 | CC1(C)CCc2c(-c3cc4ccc(C(=O)N5CCC(CN6CCN(c7ccc(C8CCC(=O)NC8=O)nc7)CC6)CC5)cc4[nH]3)n[nH]c2C1 (centres unmarked) [Compound 35, 3-(5-(4-((1-(2-(6,6-dimethyl-4,5,6,7-tetrahydro-1H-indazol-3-yl)-1H-indole-6-carbonyl)piperidin-4-yl)methyl)piperazin-1-yl)pyridin-2-yl)piperidine-2,6-dione] | >100%
